In test [1] the test system is YAP/TAZ. As to the kind of experiment: YAP/TAZ nuclear localization (immunofluorescence, automated imaging) in IPF patient-derived lung fibroblasts. Particulars: 10 μM, treated 2 hours prior to fixation; for Nuclear localization (% of total cells) IPF-1: patient sample IPF-1; for Nuclear localization (% of total cells) IPF-2: patient sample IPF-2; for Nuclear localization (% of total cells) IPF-3: patient sample IPF-3; for Nuclear localization (% of total cells) IPF-4: patient sample IPF-4. Format: cell-based, human. On the procedure:
27A. […] IPF patient-derived lung fibroblasts cells treated 2 hours prior to fixation with diverse dopaminergic agonists (10 μM). N=4 different patient samples. % nuclear localization of YAP/TAZ was determined using automated imaging software. Scale bar represents 100 μm. 27C. cAMP measured in IPF patient-derived fibroblasts treated for 20 minutes with DHX. N=3. 27E.
(§1) ImmunofluorescenceMicroscopy: Cells were plated into 96 well plates (Corning 3603) in their specific growth media and allowed to attach (8 hours). Media was then exchanged for the indicated conditions for each experiment. Cells were fixed in 3.7% formalin (Sigma-Aldrich), permeabilized in 0.25% Triton X-100 (Sigma-Aldrich) and then blocked with 1% BSA for 1 h. Cells or tissue sections were incubated overnight with mouse monoclonal antibody against αSMA (Sigma-Aldrich F3777), and/or a rabbit monoclonal antibody against YAP/TAZ (Cell Signaling D24E4) diluted 1:200 in PBS with 1% BSA. Cells were then washed and exposed to flourescence-conjugated secondary antibodies (Invitrogen) diluted 1:1000 and DAPI (Thermo Fisher Scientific). Images were taken with a Cytation5 (BioTek) microscope. For scoring αSMA positive cells (FIG. 3b), an observer blinded to the treatment conditions counted αSMA-positive cells using a visual threshold for bright fibrous staining; a minimum of 200 cells was counted for each condition. YAP/TAZ localization was quantified (FIG. 2, 6, 8) using Gen5 (Biotek) software. Images were taken at 4× magnification of both DAPI and YAP/TAZ staining. […] Quantification of double positive (YAP/TAZ and αSMA) cells from lung tissue sections (FIG. 4d) was performed similarly; however separate thresholds were established for both YAP/TAZ and αSMA. A minimum of 4000 cells was quantified for each mouse.

Test [2] relates to αSMA. The test can be described thus: αSMA intensity (fibroblast activation) in IPF patient-derived lung fibroblasts + TGFβ. The format is cell-based, human. Particulars: 1 μM + TGFβ, treated for 72 hours; for activity at 1 µM: Homo sapiens, SMA. On the procedure:
as §1

[3] abbreviates: patient sample IPF-1, read-out: αSMA intensity (% of DMSO control) IPF-1.
[4] abbreviates: patient sample IPF-2, read-out: αSMA intensity (% of DMSO control) IPF-2.
[5] abbreviates: patient sample IPF-3, read-out: αSMA intensity (% of DMSO control) IPF-3.
The mark [6] stands for this setting: patient sample IPF-4, read-out: αSMA intensity (% of DMSO control) IPF-4.

Where a name gives a salt, the structure may show the parent alone. Read-outs that look alike come from different tables or passages of the source.

Regarding `C=CCN1CCc2nc(N)sc2CC1.Cl.Cl` [B-HT 920•2HCl], in test [1], the “Nuclear localization (% of total cells) IPF-1” value is 75.68 % of total cells, the “Nuclear localization (% of total cells) IPF-2” value was 46.9 % of total cells, the “Nuclear localization (% of total cells) IPF-3” value is 64.79 % of total cells and the “Nuclear localization (% of total cells) IPF-4” value is given as 76.24 % of total cells. The “αSMA intensity (% of DMSO control) IPF-1” value in test [2] (patient sample IPF-1) is reported as 74.98 % of DMSO control. In test [2] (patient sample IPF-2), the “αSMA intensity (% of DMSO control) IPF-2” value was 58.97 % of DMSO control. Besides, the “αSMA intensity (% of DMSO control) IPF-3” value in test [2] (patient sample IPF-3) is recorded as 70.12 % of DMSO control. The “αSMA intensity (% of DMSO control) IPF-4” value in test [2] (patient sample IPF-4) is reported as 54.23 % of DMSO control.

As for `CCCN(CCC)CCc1ccc(O)c(O)c1` [Dipropyldopamine•HBr, Dipropyldopamine], in test [1], the “Nuclear localization (% of total cells) IPF-1” value was 69.18 % of total cells, the “Nuclear localization (% of total cells) IPF-2” value was 74.36 % of total cells, the “Nuclear localization (% of total cells) IPF-3” value was 65.5 % of total cells and the “Nuclear localization (% of total cells) IPF-4” value is 51.82 % of total cells. The “αSMA intensity (% of DMSO control) IPF-1” value in test [2] (patient sample IPF-1) is 48.72 % of DMSO control. Further, the “αSMA intensity (% of DMSO control) IPF-2” value in test [2] (patient sample IPF-2) is listed as 28.11 % of DMSO control. For the same compound, the “αSMA intensity (% of DMSO control) IPF-3” value in test [2] (patient sample IPF-3) was 40.34 % of DMSO control. In test [2] (patient sample IPF-4), the “αSMA intensity (% of DMSO control) IPF-4” value was 25.86 % of DMSO control.

For the compound `CCCN(CCc1ccccc1)C1CCc2c(O)cccc2C1.Cl` (racemic) [(±)-2-(N-phenylethyl-N-propyl)amino-5-hydroxytetralin], in test [1], the “Nuclear localization (% of total cells) IPF-1” value was 68.85 % of total cells, the “Nuclear localization (% of total cells) IPF-2” value is 60.86 % of total cells, the “Nuclear localization (% of total cells) IPF-3” value is recorded as 68 % of total cells and the “Nuclear localization (% of total cells) IPF-4” value is on record as 56.552 % of total cells. Besides, the “αSMA intensity (% of DMSO control) IPF-1” value in test [2] (patient sample IPF-1) is on record as 65.43 % of DMSO control. For the same compound, the “αSMA intensity (% of DMSO control) IPF-2” value in test [2] (patient sample IPF-2) is 52.77 % of DMSO control. The “αSMA intensity (% of DMSO control) IPF-3” value in test [2] (patient sample IPF-3) is 60.4844 % of DMSO control. Further, the “αSMA intensity (% of DMSO control) IPF-4” value in test [2] (patient sample IPF-4) is reported as 51.1 % of DMSO control.

Consider `CCCN1CCO[C@@H]2c3cc(O)ccc3OC[C@H]21.Cl` (racemic) [(±)-PD 128,907•HCl], for which, in test [1], the “Nuclear localization (% of total cells) IPF-1” value is 60.13 % of total cells, the “Nuclear localization (% of total cells) IPF-2” value is given as 49.54 % of total cells, the “Nuclear localization (% of total cells) IPF-3” value was 78.48 % of total cells and the “Nuclear localization (% of total cells) IPF-4” value was 60.66 % of total cells. The “αSMA intensity (% of DMSO control) IPF-1” value in test [2] (patient sample IPF-1) is recorded as 83.68 % of DMSO control. The “αSMA intensity (% of DMSO control) IPF-2” value in test [2] (patient sample IPF-2) is 85.45 % of DMSO control. Further, in test [2] (patient sample IPF-3), the “αSMA intensity (% of DMSO control) IPF-3” value is 94.2538 % of DMSO control. Further, the “αSMA intensity (% of DMSO control) IPF-4” value in test [2] (patient sample IPF-4) was 75.15 % of DMSO control.

With `CN1Cc2ccccc2C2c3cccc4[nH]cc(c34)CC21` (stereo not drawn) [CY 208-243], the “Nuclear localization (% of total cells) IPF-1” value in test [1] is reported as 20.52 % of total cells. Also, the “Nuclear localization (% of total cells) IPF-2” value in test [1] is reported as 39.79 % of total cells. Moreover, the “Nuclear localization (% of total cells) IPF-3” value in test [1] is 41.17 % of total cells. Besides, the “Nuclear localization (% of total cells) IPF-4” value in test [1] was 19.82 % of total cells. Also, the activity at 1 µM came to 21% in test [2] (setting [3]), 2.28% in test [2] (setting [4]), 2.61% in test [2] (setting [5]) and 9.64% in test [2] (setting [6]).

In the case of `COc1ccc2c(c1O)-c1cc(O)cc3c1[C@@H](C2)N(C)CC3.Cl` [R(−)-2,11-dihydroxy-10-methoxyapomorphine], in test [1], the “Nuclear localization (% of total cells) IPF-1” value is listed as 85.18 % of total cells, the “Nuclear localization (% of total cells) IPF-2” value was 74.67 % of total cells, the “Nuclear localization (% of total cells) IPF-3” value is 80.73 % of total cells and the “Nuclear localization (% of total cells) IPF-4” value is 80.45 % of total cells. Besides, the “αSMA intensity (% of DMSO control) IPF-1” value in test [2] (patient sample IPF-1) is on record as 91.84 % of DMSO control. In addition, the “αSMA intensity (% of DMSO control) IPF-2” value in test [2] (patient sample IPF-2) was 92.8 % of DMSO control. Besides, the “αSMA intensity (% of DMSO control) IPF-3” value in test [2] (patient sample IPF-3) is listed as 81.85 % of DMSO control. In addition, in test [2] (patient sample IPF-4), the “αSMA intensity (% of DMSO control) IPF-4” value was 85.61 % of DMSO control.

`C=CCN1C[C@H](C(=O)N(CCCN(C)C)C(=O)NCC)C[C@@H]2c3cccc4[nH]cc(c34)C[C@H]21` [Cabergoline]: the activity at 1 µM stood at 76.9% in test [2] (setting [3]), 48.1% in test [2] (setting [4]), 77.1% in test [2] (setting [5]) and 45.8% in test [2] (setting [6]).

With `CC(C)C[C@H]1C(=O)N2CCC[C@H]2[C@]2(O)O[C@](NC(=O)[C@@H]3C=C4c5cccc6[nH]c(Br)c(c56)C[C@H]4N(C)C3)(C(C)C)C(=O)N12` [Bromocriptine mesylate, Bromocriptine], the activity at 1 µM came to 54.1% in test [2] (setting [3]), 53.6% in test [2] (setting [4]), 61.1% in test [2] (setting [5]) and 34.1% in test [2] (setting [6]).

For `CNCCc1ccc(O)c(O)c1` [N-Methyldopamine•HCl, N-Methyldopamine], in test [1], the “Nuclear localization (% of total cells) IPF-1” value is on record as 43.16 % of total cells, the “Nuclear localization (% of total cells) IPF-2” value is 46.73 % of total cells, the “Nuclear localization (% of total cells) IPF-3” value is reported as 60.11 % of total cells and the “Nuclear localization (% of total cells) IPF-4” value was 70.44 % of total cells. Moreover, the activity at 1 µM in test [2] (setting [3]) is 43.2%. Further, in test [2] (setting [4]), the activity at 1 µM amounted to 17.7%. Besides, the activity at 1 µM in test [2] (setting [5]) is 29%. The activity at 1 µM in test [2] (setting [6]) amounted to 14.7%.

Take `NCCc1ccc(O)cc1` [4-Hydroxyphenethylamine•HCl, 4-Hydroxyphenethylamine]: the activity at 1 µM came to 99.7% in test [2] (setting [3]), 93.4% in test [2] (setting [4]), 95.7% in test [2] (setting [5]) and 88.3% in test [2] (setting [6]).

In the case of `NCCc1cccc(O)c1` [3-Hydroxyphenethylamine•HCl, 3-Hydroxyphenethylamine], in test [1], the “Nuclear localization (% of total cells) IPF-1” value was 48.96 % of total cells. The “Nuclear localization (% of total cells) IPF-2” value in test [1] is 56.92 % of total cells. Further, the “Nuclear localization (% of total cells) IPF-3” value in test [1] is given as 69.25 % of total cells. The “Nuclear localization (% of total cells) IPF-4” value in test [1] is on record as 58.37 % of total cells. Further, the activity at 1 µM came out at 88.6% in test [2] (setting [3]), 96.7% in test [2] (setting [4]), 82.6% in test [2] (setting [5]) and 99.8% in test [2] (setting [6]).

On to `CCCN1C[C@H](CSC)C[C@@H]2c3cccc4[nH]cc(c34)C[C@H]21` [Pergolide mesylate, Pergolide], for which the activity at 1 µM in test [2] (setting [3]) came out at 65%; in test [2] (setting [4]), 51.6%; in test [2] (setting [5]), 63.6%; in test [2] (setting [6]), 48.1%.

Consider `CN1C[C@@H](NS(=O)(=O)N(C)C)C[C@@H]2c3cccc4c3c(cn4C)C[C@H]21` [Mesulergine•HCl, Mesulergine], for which the activity at 1 µM was 35.5% in test [2] (setting [3]), 23.3% in test [2] (setting [4]), 40% in test [2] (setting [5]) and 19.8% in test [2] (setting [6]).

Turning to `CCCN(CCC)CCc1cccc2c1CC(=O)N2` [Ropinirole HCl, Ropinirole], the activity at 1 µM in test [2] (setting [3]) was 72.2%; in test [2] (setting [4]) it was 53.5%; in test [2] (setting [6]) it was 62%.

For `c1cnc(N2CCN(Cc3ccc4c(c3)OCO4)CC2)nc1` [Piribedil•2HCl, Piribedil], the activity at 1 µM in test [2] (setting [3]) turned out to be 70.4%; in test [2] (setting [4]) it was 61.5%; in test [2] (setting [5]) it was 71.5%; in test [2] (setting [6]) it was 41.2%.

With `Oc1cc2c(cc1O)[C@@H](c1ccccc1)CNCC2` [SKF 38393•HBr], the activity at 1 µM in test [2] (setting [3]) was determined as 37.1%; in test [2] (setting [4]) it was 26.8%; in test [2] (setting [5]), 31.2%; in test [2] (setting [6]), 20.8%.

In the case of `CCCN[C@H]1CCc2nc(N)sc2C1` [Pramipexole Dihydrochloride Monohydrate, Pramipexole], the activity at 1 µM came to 87.6% in test [2] (setting [3]), 73.2% in test [2] (setting [4]), 82.8% in test [2] (setting [5]) and 89.9% in test [2] (setting [6]).

Source of the values: patent publication US20240252463A1, “METHODS OF TREATING FIBROTIC PATHOLOGIES” (Mayo Foundation for Medical Education and Research, priority 2018, published 2024).
